This is an account of results in article PMC7554884, “Small Molecule Inhibitors of DYRK1A Identified by Computational and Experimental Approaches” (International Journal of Molecular Sciences, 2020).

One experiment has as its system GSK3β. As to conditions: read-out: IC50 against GSK3β, cited from earlier work.
In the next experiment the target is T1, DYRK1A(h) (Homo sapiens, UniProt Q13627).
T1 construct: purchased Eurofins Scientific Inc. Korea (contract assay service)
Briefly: In vitro enzymatic assay (Eurofins, radiometric 33P-ATP). The experiment is classed as biochemical. Particulars: for inhibition at 10 µM / % inhibition at 10 μM: DYRK1A; for IC50: read-out: IC50 values against DYRK1A. As to the method: Enzymatic assays were performed by Eurofins Scientific Inc. Korea (Brussels, Belgium). […] The reaction was initiated by the addition of the MgATP mix. After incubation for 40 min at room temperature, the reaction was stopped by the addition of 3% phosphoric acid solution. Then, 10 μL of the reaction was then spotted onto a P30 filtermat and washed three times for 5 min in 75 mM phosphoric acid and once in methanol prior to drying and scintillation counting. […] All assays were performed in duplicate, and the average IC50 value was reported.

The next experiment relates to DYRK1A. Further details: method as in PMID 30170319. Particulars: staurosporine; read-out: IC50 against DYRK1A; cited from earlier work.
Setting [1] is: as summarised in the discussion.

The structures appear in SMILES notation. Like-named read-outs stand apart in the source and are kept apart here. Where only a bound is given, the exact number is not on record here.

Regarding `N#Cc1ccc2[nH]c(O)c(-c3ccc(CN4CCOCC4)cn3)c2c1` [AZD1080, 2-hydroxy-3-(5-(morpholinomethyl)pyridin-2-yl)-1H-indole-5-carbonitrile, reference compound], the 50% inhibitory concentration (IC50) was 0.031 µM with GSK3β (AZD1080) and 2.91 µM on DYRK1A(h) (duplicate, average). The same compound displayed an inhibition at 10 µM against DYRK1A(h) of 71%.

On DYRK1A(h), `CC(C)c1nn(C)cc1-c1nc2c(N3CCN(Cc4cccnc4)CC3)c(Br)cnc2[nH]1` [Compound 1, 6-bromo-2-(3-isopropyl-1-methyl-1H-pyrazol-4-yl)-7-(4-(pyridin-3-ylmethyl)piperazin-1-yl)-3H-imidazo(4,5-b)pyridine] returned an inhibition at 10 µM of 70%. In addition, the IC50 on DYRK1A(h) (duplicate, average) is 6.77 µM.

In the case of `COC(=O)c1sc2ncnc(Nc3cccc(OC)c3)c2c1C` [Compound 2, methyl 4-((3-methoxyphenyl)amino)-5-methylthieno (2,3-d)pyrimidine-6-carboxylate], the inhibition at 10 µM at DYRK1A(h) turned out to be 58%. For the same compound, on DYRK1A(h) (duplicate, average), the IC50 came to 5.71 µM.

Regarding `O=C(O)c1cc2cc(Br)ccc2s1` [Compound 3, 5-bromobenzo[b]thiophene-2-carboxylic acid], the inhibition at 10 µM against DYRK1A(h) came out at 82%. Besides, the 50% inhibitory concentration (IC50) was about 3.2 µM at DYRK1A(h) (setting [1]) and 3.25 µM at DYRK1A(h) (duplicate, average).

In the case of `N#Cc1cccc2sc(C(=O)O)cc12` [Compound 4, 4-cyanobenzo[b]thiophene-2-carboxylic acid], testing at 10 µM on DYRK1A(h) gave an inhibition of 71%. Besides, the IC50 on DYRK1A(h) (setting [1]) is about 3.2 µM; on DYRK1A(h) (duplicate, average) it was 3.24 µM.

For `COc1ccc(Nc2cc(C)nc(Nc3ccc(OC)cc3)n2)cc1` [Compound 5, N^2,N^4-bis(4-methoxyphenyl)-6-methylpyrimidine-2,4-diamine], at DYRK1A(h), the “% inhibition at 10 μM” value is on record as 27% and the inhibition at 10 µM is under 40%.

As for `O=C(O)c1cccc(Nc2nc(-c3ccccc3)c3cc(Br)ccc3n2)c1` [Compound 6, 3-((6-bromo-4-phenylquinazolin-2-yl)amino)benzoic acid], the inhibition at 10 µM against DYRK1A(h) turned out to be 76%. For the same compound, on DYRK1A(h) (duplicate, average), the IC50 was 5.83 µM.

In the case of `COc1ccc(Nc2ncc(F)c(N3CCOCC3)n2)cc1` [Compound 7, 5-fluoro-N-(4-methoxyphenyl)-4-morpholinopyrimidin-2-amine], at DYRK1A(h), the “% inhibition at 10 μM” value was determined as 33% and the inhibition at 10 µM is under 40%.

As for `CN[C@@H]1C[C@H]2O[C@@](C)([C@@H]1OC)n1c3ccccc3c3c4c(c5c6ccccc6n2c5c31)C(=O)NC4` [Staurosporine, staurosporine], the IC50 is […] with GSK3β (staurosporine) and […] in the experiment with DYRK1A.
